Experimental findings from a melting point compilation (Tetko et al.; mined from patent text by program, amines drawn as free bases though some values may be those of a salt) are described below.

Where only a bound is given, the exact number is not on record here.

With `CCCCN(CCCC)Cc1cc(C(C)(C)C)cc(C(C)(C)C)c1O`, the melting point lay within 33 to 35 °C.

For the compound `O=C(O)C(=O)C=Cc1ccccc1F`, the melting point lay in the range of 100 to 102 °C.

For the compound `Cc1cc(=O)c(Oc2ccc(F)cc2F)c(-c2ccc(S(C)(=O)=O)cc2)o1`, the melting point was 191 °C.

The compound `CCC(CC)Nc1c([N+](=O)[O-])cc(CC(=O)O)c(C(C)C)c1[N+](=O)[O-]` returned a melting point of 116 to 118 °C.

Turning to `O=c1[nH]c2ccc(C(O)CN3CCC(O)(c4ccccc4)CC3)cc2o1` (configuration not stated), the melting point is 175 to 177 °C.

In turn, `CN1Cc2c(-c3nc(C4CC4)no3)ncn2-c2cccc(Br)c2C1=O` showed a melting point of 187 to 189 °C.

In turn, `CN(O)C(=O)c1cccc2c1[nH]c1c3cc(Br)ccc3oc21` showed a melting point of 174 to 175 °C.

In the case of `O=C(CCl)Nc1ccc2c(c1NC(=O)CCl)C(=O)c1ccccc1C2=O`, the melting point fell in the range of 254 to 255 °C.

In turn, `Cc1ccc(C(=O)Nc2cc(N3CCOCC3)cc(C(F)(F)F)c2)cc1Nc1nccc(-c2cccnc2)n1` came in with a melting point of 208 to 211 °C.

`CC(=O)OC1CSC(Oc2cccnc2-c2ccc(C)o2)C(OC(C)=O)C1OC(C)=O` (configuration not stated) came in with a melting point of 128 °C.

The compound `COc1cccc2c1CC(=O)CO2` displayed a melting point of 53 to 54 °C.

Compound `O=C(Nc1ccc(Cl)c(C(F)(F)F)c1)c1ccccc1` showed a melting point of 130 to 131 °C.

`C=CCNc1cc2c(c3ccccc13)C(CCl)CN2C(=O)c1cc2cc(OC)c(OC)c(OC)c2[nH]1` (configuration not stated): the melting point lay within 107 to 112 °C.

On to `O=C(Nc1ccc(Cl)cc1)NC1N=C(c2ccccc2)c2ccccc2-n2cnnc21` (configuration not stated), for which the melting point was in the range of 294 to 296 °C.

Compound `CN(Cc1cc(C(F)(F)F)cc(C(F)(F)F)c1)C(=O)c1c(-c2ccc(F)cc2)c2ccncc2c(=O)n1C` gave a melting point of 179 to 181 °C.

Consider `c1ccc(C(c2ccccc2)N2C(=NCCCn3ccnc3)c3cccc4cccc2c34)cc1`, for which the melting point was in the range of 142 to 143 °C.

The compound `CCN1c2ncc(Cc3cccc(O)c3)cc2C(=O)N(C)c2ccc(Cl)nc21` displayed a melting point of 219 to 220 °C.

Regarding `Cn1nc(Cl)cc(Nc2ccn(C3CN(C(=O)OC(C)(C)C)C3)n2)c1=O`, the melting point was in the range of 154 to 156 °C.

The compound `COc1cc(C2CCN(CCO)CC2O)ccc1Nc1ncc2ccc(-c3ccccc3OC)n2n1` (configuration not stated) yielded a melting point of 88 to 96 °C.

Compound `COC(=O)c1ccc2c(ccn2Cc2cccc([N+](=O)[O-])c2)c1` gave a melting point of 129 to 130 °C.

In turn, `O=C(c1ccc(-c2ncc[nH]2)cc1)N1CCN(S(=O)(=O)c2ccc3cc(Cl)ccc3c2)CC1` showed a melting point of 159 to 161 °C.

As for `C[C@@H](n1ccn(-c2ccc(OCC(F)(F)C(F)F)cc2)c1=O)[C@](O)(CO)c1ccccc1F`, the melting point lay in the range of 166 to 167 °C.

As for `O=C(NCc1ccc(F)cc1)c1cccc(C(=O)NCc2ccc(F)cc2)c1`, the melting point is 190 to 191 °C.

With `COC(=O)C1(C(=O)OC)CCC1(C(=O)OC)C(=O)OC`, the melting point was 80.5 to 81 °C.

As for `Cc1ccc(OCC(=O)N(Cc2nc(-c3ccc(C)cc3)no2)C(C)C)cc1`, the melting point lay in the range of 142 to 143 °C.

On to `CO/C=C(\C(=O)OC)c1ccccc1C`, for which the melting point is 68 to 70 °C.

For the compound `O=c1c2c[nH]c3ccc(F)cc3c-2nn1-c1ncccn1`, the melting point was > 350 °C.

`COc1cc2nc(N3CCN(C)CC3)n3ncnc3c2cc1OC` returned a melting point of 194 to 196 °C.

`Cc1ccc(C)c(-c2sc(NC(=O)[C@@H]3C[C@@H]4CC[C@H]3C4)c(C#N)c2Cl)c1` showed a melting point of 117 to 119 °C.

In the case of `CNC1([C@@H]2CCN(c3ccc4c(=O)c(C(=O)O)cn(C5CC5)c4c3C)C2)CC1`, the melting point was 190 to 192 °C.

`CC1(C)CCC(C)(C)c2cc(-c3cc(-c4ccc(C(=O)O)cc4)ccc3CCCO)ccc21`: the melting point was 203 °C.

As for `Oc1ccc(-c2nnc(-c3ccccc3)o2)cc1`, the melting point was 256 °C.

For `COc1cc(N)c(C)c(OC)c1OC`, the melting point is 49 to 51 °C.

`O=C1CCC(N2Cc3cc(CNC(=S)Nc4ccc(SC(F)(F)F)cc4)ccc3C2=O)C(=O)N1` (configuration not stated) registered a melting point of 229 to 231 °C.

As to `N#Cc1ccc(C=NO)c(Cl)c1`, the melting point lay in the range of 177 to 179 °C.

`O=C(NC[C@H]1CN(c2ccc(N3CCC4(CC3)OCCO4)c(F)c2)C(=O)O1)C(Cl)Cl` came in with a melting point of 175 to 178 °C.

Compound `COC(=O)C1(C(F)CCCCOc2ccc(Cl)cc2)CO1` (configuration not stated) had a melting point of 76 to 78 °C.

`CCCc1cc2c(s1)[C@@H](O)[C@H]1C[C@]2(O)C(=O)O1`: the melting point lay within 120 to 125 °C.

On to `CN1CCC(C(=O)N2CCC(c3[nH]nc4c3C(=O)c3c(NC(=O)NN5CCOCC5)cccc3-4)CC2)CC1`, for which the melting point lay within 148 to 150 °C.

In the case of `CC(C)c1c(CO)c(-c2ccc(F)cc2)nn1-c1ccccc1`, the melting point was 144 to 147 °C.

As for `CCNC1CCN(c2cccc(-c3cnc4[nH]cc(C(=O)C(C)(C)C)c4n3)c2)C1` (configuration not stated), the melting point is 200 to 202 °C.

`COc1cc(-c2nc3ccc(OCC(C)N(C)C)cc3n2Cc2ccccc2Br)cc(OC)c1OC` (configuration not stated) showed a melting point of 152 °C.

`CN(C)c1nc(Cl)nc(-n2ccnc2)n1`: the melting point was 88 to 92 °C.

Turning to `O=C(Cc1c(Br)cnc2c(NC(=O)c3c(Cl)cccc3Cl)cccc12)NCc1ccccn1`, the melting point was 197 to 199 °C.

`Cc1nc(N2CCN(Cc3ccccc3)C2=N)sc1C(=O)NCc1ccc(F)cc1`: the melting point was 142 to 144 °C.

For `CNC1C(O)CC2C3CCC4CC(=O)CCC4(C)C3CCC21C` (configuration not stated), the melting point lay in the range of 167 to 174 °C.

Take `CS(=O)(=O)c1ccc(-c2c(-c3ccc(Cl)cc3)[nH]c3ccc(Cl)cc23)cc1`: the melting point was 269 to 271 °C.

Take `Cc1cc([N+](=O)[O-])ccc1NC(=O)c1cc(C(C)(C)C)ccc1O`: the melting point fell in the range of 202 to 204 °C.

Consider `COc1c(C)c2c(c(NC(=O)N(C)C)c1C/C=C(\C)CCC(=O)O)C(=O)OC2`, for which the melting point lay in the range of 170 to 190 °C.

For the compound `CC1(C)C(=O)Nc2cc(O)c([N+](=O)[O-])cc21`, the melting point was 244 to 247 °C.

Compound `CN1CC(OC(c2ccccc2)c2ccccc2)C1` displayed a melting point of 44 to 48 °C.

Take `OC(CCN1CCN(c2ccccc2)CC1)COc1ccc(Br)cc1` (configuration not stated): the melting point fell in the range of 100 to 103 °C.

`Clc1ccc(CO[C@H]2CO[C@@H](c3ccccc3)OC2)cc1` showed a melting point of 116 to 117 °C.

On to `ClCn1cnc(Cl)c1Cl`, for which the melting point is 40 to 41 °C.

Regarding `c1ccc(C2CCN(CC34CC(c5ccccc53)c3ccccc34)CC2)cc1`, the melting point is > 300 °C.

The compound `COC[C@H](O)CNc1ccc2cc(OCc3ccccc3)ccc2c1` gave a melting point of 105 to 106 °C.

The compound `O=C1OCCC1NC(c1ccccc1)(c1ccccc1)c1ccccc1` (configuration not stated) showed a melting point of 164 to 166 °C.

Regarding `COC(=O)Cc1ccc(OCCCOc2cc3c(cc2O)CCO3)cc1`, the melting point fell in the range of 108 to 110 °C.

In turn, `COc1cccc(C(=O)NCc2cccc3c2CN(C2CCC(=O)NC2=O)C3=O)c1` (configuration not stated) had a melting point of 244 to 246 °C.

Consider `CN1CN(C)c2nc3n(Cc4ccccc4)c(=O)cc(O)n3c2C1=O`, for which the melting point was 176 to 182 °C.

As to `N#Cc1ccc(C=NNS(=O)(=O)c2ccccc2)cc1`, the melting point was in the range of 209 to 213 °C.

`CN(C)CCN(C)C(=O)Cc1ccc(NC(=O)c2ccc(-c3ccccc3)cc2)cc1` showed a melting point of 135 to 136 °C.

The compound `Cc1n[nH]c(C)c1Oc1cc(Cl)cc(C#N)c1` had a melting point of 136 to 140 °C.

Turning to `O=C(O)CCCCCCC(O)C(=O)O` (configuration not stated), the melting point was in the range of 86 to 92 °C.

The compound `CNC(=O)CCCCCN(C)S(=O)(=O)c1ccc(Cl)c(COc2cccc3ccc(C)nc23)c1Cl` showed a melting point of 110 to 112 °C.

For the compound `CCC(=O)/C=C/c1cn(-c2ccccc2)nc1OCc1ccc(OCc2nc(-c3ccco3)oc2C)c(OC)c1`, the melting point is 167 to 168 °C.

As to `COc1cccc(C(=O)c2[nH]c3cc(Cl)ccc3c2NC(C)=O)c1`, the melting point fell in the range of 161 to 162 °C.

In the case of `COC(=O)/C=C/n1cnc2ccc(C(C)C)cc2c1=O`, the melting point turned out to be 145 °C.

As for `CC(C)(C)OC(=O)NS(=O)(=O)c1ccc(Cl)cc1`, the melting point was in the range of 98 to 99 °C.

`N#Cc1cccc(Oc2c(-c3ccccc3)cccc2-c2ccccc2)c1C#N` came in with a melting point of 129 to 130 °C.

`c1ccc2cc(CC[C@H]3CNCCN3)ccc2c1`: the melting point lay within 151 to 154 °C.

In turn, `COc1ccc2c(CCN3CCCCC3=O)c[nH]c2c1` returned a melting point of 146 °C.

On to `Brc1cnn(Cc2ccccc2)c1`, for which the melting point was in the range of 51 to 52 °C.

`Cc1nc2cccc3n(CCCCNS(=O)(=O)C(F)(F)F)c(=O)c1n23` gave a melting point of 195 to 196 °C.

In turn, `N#CC(N)=C(C#N)NCc1cnn(-c2c(Cl)cc(C(F)(F)F)cc2Cl)n1` displayed a melting point of 191 to 192 °C.

`COc1cc(C(O)c2ccccc2[N+](=O)[O-])c(Br)cn1` (configuration not stated) had a melting point of 128 to 131 °C.

As to `CCC12CCC3C4CCC(=O)C=C4CCC3C1CCC2OCCN(C)C` (configuration not stated), the melting point was in the range of 87 to 88 °C.

In turn, `CC1(C)COC(c2cc(F)c(F)cc2F)=N1` showed a melting point of 53 to 54 °C.

`c1cc(-n2ccnc2)cc(-n2cnc3cc(-c4ccon4)ccc32)c1`: the melting point was in the range of 230 to 234 °C.

`CCCc1nn(C)c2c(=O)[nH]c(Cc3ccc(C(=O)O)cc3)nc12` gave a melting point of 292 to 293 °C.

In turn, `CCc1ccc(CC(C)(C)NCC(O)c2cc(OCc3ccccc3)cc3c2OCC(=O)N3)cc1` (configuration not stated) came in with a melting point of 210 to 214 °C.

Consider `COc1ccc(NC(=O)Nc2c(C)cc(Oc3ccc4nc(COc5ccc(CC6SC(=O)NC6=O)cc5)n(C)c4c3)cc2C)cc1` (configuration not stated), for which the melting point was 229 to 231 °C.

The compound `CCC1(CC)CSc2ccccc2N(c2ccccc2)C1=O` yielded a melting point of 86.4 °C.

`COC(=O)Cc1cc2c(c([N+](=O)[O-])c1)NCC2` gave a melting point of 113 to 115 °C.

For `O=C1NCN(c2ccc(F)cc2)C12CCN(CCNC(c1ccc(F)cc1)c1ccc(F)cc1)CC2`, the melting point was 193 °C.

On to `CN1CC(CCCl)Oc2cc(Cl)ccc2C1=S` (configuration not stated), for which the melting point is 105 to 106 °C.

Regarding `Cc1cccc(C2(c3ccc(F)c(-c4ccc(NC(=O)NN5CCOCC5)cc4)c3)CNC(C(C)C)=N2)n1` (configuration not stated), the melting point was 141 to 143 °C.
